Consider one molecule from patent US7745492B2, “Carboxamido opioid compounds” (Janssen Pharmaceutical, priority 2004, dated 2010).

A value given as a limit tells only on which side of the number the result lay.

Data set [1] in a line: Metabolic stability in human liver microsomes. The class given is in vitro ADME. On the procedure: (§1) The metabolic stability of Compound 3 was investigated using several approaches. The compound was incubated with liver microsomes from mouse, rat, dog and human and the percent of compound remaining after ten min quantified. The compound was metabolically robust in all species tested.
In a follow up study in human liver microsomes, the percent of compound remaining was determined at several incubation times (30, 60 and 90 min). The in vitro half life of the compound was determined to be >100 minutes.

The nature of data set [2]: Metabolic stability in mouse liver microsomes. The class given is in vitro ADME. Particulars: 10 min incubation. The protocol: as §1
For another data set, the system named is male Sprague-Dawley rats. As to the kind of experiment: Rat CFA radiant heat model of inflammatory pain. The class given is in vivo. The following applies: dosed orally 24 h after intraplantar CFA. The protocol:
Rat CFA Radiant Heat Model of Inflammatory Pain
Intraplantar injection of Complete Freund's Adjuvant (CFA) in rodents results in a strong, long-lasting inflammatory reaction, characterized by a chronic and pronounced hyperalgesia to both thermal and mechanical stimuli. These effects peak between 24-72 h following injection, and can last for several days to a few weeks. To assess the ability of compounds to reverse thermal hyperalgesia, male Sprague-Dawley rats (200-350 g) were given an intraplantar injection of CFA (1:1 CFA:saline, 100 μL) into their left hindpaw. Following a 24-h incubation period, response latencies on the Radiant Heat Paw Stimulator (RH) were obtained and compared to baseline (pre-CFA) latencies. The RH device automatically registered lifting of the paw from the surface of the glass. […] Following the post CFA latency assessment, rats were dosed orally (2.5 mL/kg) with test compound or vehicle (hydroxypropylmethylcellulose, HPMC). Percent reversal of hyperalgesia was calculated for each animal as (Treatment Response−postCFA Response)/(preCFA Response−postCFA Response)×100. Therefore, a return to normal pre-CFA thresholds was defined as 100% efficacy, whereas no change from post-CFA thresholds was 0% efficacy. Average % reversal of hyperalgesia was then calculated for each treatment group (n=6-8 rats/group). […]

Data set [3] in a line: Metabolic stability in dog liver microsomes. The class given is in vitro ADME. Particulars: 10 min incubation. The protocol: as §1
In general terms: Microsomes from liver hold many membrane-bound enzymes, among them those of drug oxidation.

Data set [4] addresses recombinant human P450 3A4 (Homo sapiens, UniProt P08684). As to the kind of experiment: Recombinant human P450 isoform inhibition, 3A4. The format is in vitro ADME. The protocol: (§2) In a study using recombinant human P450 isoforms, the compound was only a weak inhibitor (IC50>10 μM) of all isoforms tested, 3A4, 2D6, 2C9, 2C19, and 1A2.
Another data set deals with T1, delta opioid receptor (Rattus norvegicus, UniProt P33533).
T1 construct: from tissue; host or cells: rat forebrain membrane (particulate) preparation
As to the kind of experiment: Rat brain delta opioid receptor binding assay ([3H]DPDPE). Particulars: rat forebrain membranes, 25° C. On the procedure:
(§3) Rat Brain Mu and Delta Opioid Receptor Binding Assay
Male, Wistar rats (150-250 g, VAF, Charles River, Kingston, N.Y.) were killed by cervical dislocation and their brains removed and placed immediately in ice cold Tris HCl buffer (50 mM, pH 7.4). The forebrains were separated from the remainder of the brain by a coronal transection, beginning dorsally at the colliculi and passing ventrally through the midbrain-pontine junction. After dissection, the forebrains were homogenized in Tris buffer in a Teflon®-glass homogenizer. The homogenate was diluted to a concentration of 1 g of forebrain tissue per 100 mL Tris buffer and centrifuged at 39,000×G for 10 min. The pellet was resuspended in the same volume of Tris buffer with several brief pulses from a Polytron homogenizer. This particulate preparation was used for the opioid receptor binding assays. […] The tubes and filters were rinsed three times with 4 mL of 10 mM HEPES (pH 7.4) and the radioactivity associated with the filter circles determined using Formula 989 scintillation fluid (New England Nuclear, Boston, Mass.) in a scintillation counter.
(§4) The data were used to calculate a Ki value, using GraphPad Prism.

Data set [5] concerns the target recombinant human P450 2C9 (Homo sapiens, UniProt P11712). As to the kind of experiment: Recombinant human P450 isoform inhibition, 2C9. The class given is in vitro ADME. On the procedure: as §2
A further data set addresses T2, mu opioid receptor (Rattus norvegicus, UniProt P33535).
T2 construct: from tissue; host or cells: rat forebrain membrane (particulate) preparation
As to the kind of experiment: Rat brain mu opioid receptor binding assay ([3H]DAMGO). The following applies: rat forebrain membranes, 25° C. On the procedure:
as §3
Male, Wistar rats (150-250 g, VAF, Charles River, Kingston, N.Y.) were killed by cervical dislocation and their brains removed and placed immediately in ice cold Tris HCl buffer (50 mM, pH 7.4). The forebrains were separated from the remainder of the brain by a coronal transection, beginning dorsally at the colliculi and passing ventrally through the midbrain-pontine junction. After dissection, the forebrains were homogenized in Tris buffer in a Teflon®-glass homogenizer. The homogenate was diluted to a concentration of 1 g of forebrain tissue per 100 mL Tris buffer and centrifuged at 39,000×G for 10 min. The pellet was resuspended in the same volume of Tris buffer with several brief pulses from a Polytron homogenizer. This particulate preparation was used for the opioid receptor binding assays. Following incubation with the mu opioid selective peptide ligand [^3H]DAMGO or the delta opioid selective ligand [^3H]DPDPE at 25° C., the tube contents were filtered through Whatman GF/B filter sheets on a Brandel cell harvester. The tubes and filters were rinsed three times with 4 mL of 10 mM HEPES (pH 7.4) and the radioactivity associated with the filter circles determined using Formula 989 scintillation fluid (New England Nuclear, Boston, Mass.) in a scintillation counter.
as §4

T2 sequence (P33535 whole entry): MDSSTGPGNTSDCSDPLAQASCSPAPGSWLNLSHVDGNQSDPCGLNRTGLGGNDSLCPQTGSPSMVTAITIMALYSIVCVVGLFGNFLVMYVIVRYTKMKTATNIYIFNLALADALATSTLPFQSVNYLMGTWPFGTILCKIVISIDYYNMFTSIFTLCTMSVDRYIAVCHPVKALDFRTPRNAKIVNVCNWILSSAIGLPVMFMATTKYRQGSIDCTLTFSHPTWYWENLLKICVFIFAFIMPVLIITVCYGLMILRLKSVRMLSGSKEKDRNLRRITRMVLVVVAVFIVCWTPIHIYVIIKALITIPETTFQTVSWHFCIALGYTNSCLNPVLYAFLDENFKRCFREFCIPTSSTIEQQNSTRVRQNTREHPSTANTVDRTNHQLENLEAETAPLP
recombinant human P450 2C9, sequence (P11712 whole entry, canonical isoform): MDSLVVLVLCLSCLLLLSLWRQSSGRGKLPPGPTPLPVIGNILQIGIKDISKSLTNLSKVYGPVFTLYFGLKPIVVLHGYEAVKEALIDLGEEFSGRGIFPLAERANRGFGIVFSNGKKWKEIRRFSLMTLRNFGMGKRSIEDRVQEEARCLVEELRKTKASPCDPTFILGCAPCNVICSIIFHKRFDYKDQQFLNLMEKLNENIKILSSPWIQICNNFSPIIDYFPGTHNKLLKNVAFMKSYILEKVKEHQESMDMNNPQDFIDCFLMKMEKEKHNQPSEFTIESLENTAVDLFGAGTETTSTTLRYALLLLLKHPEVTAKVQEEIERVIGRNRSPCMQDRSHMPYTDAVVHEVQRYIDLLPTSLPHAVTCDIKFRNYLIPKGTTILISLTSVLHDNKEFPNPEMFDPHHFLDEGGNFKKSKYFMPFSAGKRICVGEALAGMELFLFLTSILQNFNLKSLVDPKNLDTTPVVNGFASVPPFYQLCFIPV
T1 sequence (P33533 whole entry): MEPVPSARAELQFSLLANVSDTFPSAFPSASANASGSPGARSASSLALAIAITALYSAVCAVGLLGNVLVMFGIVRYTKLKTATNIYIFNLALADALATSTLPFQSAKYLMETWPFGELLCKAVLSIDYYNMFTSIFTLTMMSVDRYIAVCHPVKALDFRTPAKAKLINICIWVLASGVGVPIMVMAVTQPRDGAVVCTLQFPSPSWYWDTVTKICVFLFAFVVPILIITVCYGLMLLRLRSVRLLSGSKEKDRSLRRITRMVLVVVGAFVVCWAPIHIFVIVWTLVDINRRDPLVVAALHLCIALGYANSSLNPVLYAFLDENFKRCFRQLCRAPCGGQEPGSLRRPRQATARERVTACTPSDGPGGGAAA
recombinant human P450 3A4, sequence (P08684 whole entry, canonical isoform): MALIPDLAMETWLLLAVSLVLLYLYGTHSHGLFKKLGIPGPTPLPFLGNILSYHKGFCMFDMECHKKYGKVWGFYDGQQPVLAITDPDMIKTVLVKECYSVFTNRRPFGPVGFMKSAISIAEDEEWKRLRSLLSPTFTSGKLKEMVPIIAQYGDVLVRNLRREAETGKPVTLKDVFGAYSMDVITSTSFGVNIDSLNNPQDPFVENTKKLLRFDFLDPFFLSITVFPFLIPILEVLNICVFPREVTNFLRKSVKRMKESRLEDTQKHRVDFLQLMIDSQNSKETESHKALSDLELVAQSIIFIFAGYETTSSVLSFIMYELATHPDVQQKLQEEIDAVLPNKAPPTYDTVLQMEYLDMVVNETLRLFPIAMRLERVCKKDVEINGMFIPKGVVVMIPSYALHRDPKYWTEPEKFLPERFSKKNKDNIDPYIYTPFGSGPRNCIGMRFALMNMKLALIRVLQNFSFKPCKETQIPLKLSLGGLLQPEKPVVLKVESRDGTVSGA

Consider `CN(C)C[C@H]1CCCC[C@]1(O)c1cccc(C(N)=O)c1` (single isomer, unassigned) [Cpd 3], for which the results for the “% remaining after 10 min” value in data set [1] (10 min incubation), in data set [2] and in data set [3] were 101.4%, 88.2% and 92.6%, respectively. Further, the “Metabolism in human liver microsomes (result in words)” value in data set [1] (10 min incubation) is listed as “no metabolism of the compound was observed”. Also, the half-life (as a rule, the time in which the quantity being followed falls by half) in data set [1] (incubation times 30, 60 and 90 min, read-out: In vitro half life) is > 1.67 h. In the data set on male Sprague-Dawley rats, the “Antihyperalgesic effect (reversal of thermal hyperalgesia)” value is on record as “antihyperalgesic”. For the same molecule, the IC50 in data set [4] and in data set [5] was > 10 µM throughout. Besides, the Ki – broadly, the equilibrium dissociation constant of an inhibitor or competing ligand from its target – at delta opioid receptor was 3.14 µM; on mu opioid receptor, 0.0155 µM.
